Values quoted from earlier work in patent US20100034838A1, “Transdermal Administration of Active Agents for Systemic Effect” (priority 2005, published 2010).

SMILES: CN1CCCC1c1cccnc1 (centres unmarked) [nicotine]
- nicotine levels in the blood (nicotine patches, approximately 4-6 hours after adhesion of a medicinal patch to the skin): 10 to 15 ng/mL
- blood nicotine peak (smoking a cigarette, approximately 5 minutes after smoking is commenced): about 25 ng/ml
